{"source": "patent US20100041089A1", "about": "“IMPROVED METHOD FOR DETECTING CHEMICAL […]” (priority 2006, published 2010)", "tested_on": "yeast genes (expressed mRNA)", "experiment": "DNA chip measurement of expressed mRNA of yeast genes after culture with a toxic chemical substance", "format": "cell-based, Saccharomyces cerevisiae S288C", "settings": "for level of expressed mRNA in the presence of chemical substance / level in the absence of chemical substance: cultured two hours with the chemical substance; for The level of expressed mRNA in the presence of chemical substance/The level of expressed mRNA in the absence of chemical substance: cultured two hours with substance", "method": "Yeast (Saccharomyces cerevisiae S288C (a SUC2mal mel gap2 CUP1)) were cultured at 25° C. on YPD medium (yeast extract 1%, polypeptone 2%, glucose 2%). One of toxic chemical substances was added to the cell at logarithmic growth phase, and the cell was further cultured for two hours. Cell was cultured without any chemical substance in the same condition, and was used as a control. Concentrations of the chemical substances were defined to inhibit the growth of the yeast but not lead to death.\nAfter the completion of cultivation, the culture was centrifuged to collect the cells. To the cells, sodium acetate buffer (50 mM sodium acetate, 10 mM EDTA, 1% SDS) was added, and the mixture was shaken at 65° C. for five minutes, followed by returning to room temperature, and obtaining the supernatant, which procedure was repeated two times. To the supernatant, ½ amount of a solution of phenol/chloroform (1:1) was added, and the mixture was centrifuged to give a supernatant, an equal amount of chloroform was added, and the mixture was centrifuged to give a supernatant. To the supernatant, an equal amount of isopropanol containing 0.3 M sodium acetate was added, and the mixture was allowed to stand at room temperature for 30 minutes, after which the mixture was centrifuged to give sediment of the whole RNAs. Seventy % ethanol was added to the sediment, and the mixture was again centrifuged to give sediment, which was then dried and dissolved in water. mRNA was isolated from the whole RNAs as followings. In view of the fact that a poly A chain is attached to the 3′ terminus of mRNA, a polynucleotide having a poly T structure which was immobilized on the surface of latex beads was used to trap the mRNA, and then the mRNA was washed and eluted with spine column (Oligotex-dT30<Super>mRNA Purification Kit, Takara). Reverse transcription of the mRNA was conducted with a reverse transcriptase (Super Script II Reverse Transcriptase; catalogue No. 18064-014, GibcoBRL) using fluorescence-labeled nucleotides to give cDNAs that were introduced with Cy3-dUTP or Cy5-dUTP during the reverse transcription.\nThe labeled cDNAs were dissolved in TE buffer (10 mM Tris-HCl/1 mM EDTA, pH 8.0), and the solution was dropped on the DNA chip containing the whole genes of yeast (DNA Chip Research Inc. Japan) so that the cDNAs were hybridized on the DNA chip at 65° C. for over 12 hours. The fluoresces intensity of the DNA chip was read with a scanner, and the ratio relative to the fluorescence intensity resulting from the absence of chemical substance was estimated as the following, which is shown in Tables 1 to 9.\nIn the Tables, “Intensity” indicated in the rightmost column is a value of the level of expressed mRNA of each gene in control cells as divided by the average level of the expressions of the whole genes. A gene of which mRNA level is lower in control, and is higher in cases of addition of chemical substance, is especially useful in the detection of toxic substances.\nHere, when a ratio of an amount of mRNA expressed in the presence of the chemical substance to an amount of mRNA expressed in the absence of the chemical substance is two or more, then it is considered significant.", "data": [{"smiles": "[Cl][Hg][Cl]", "note": "[(3), HgCl2]", "values": [{"measurement": "level of expressed mRNA in the presence of chemical substance / level in the absence of chemical substance", "setting": "yeast gene YNL058C", "result": 2.1}, {"measurement": "level of expressed mRNA in the presence of chemical substance / level in the absence of chemical substance", "setting": "yeast gene YNL063W", "result": 0.9}, {"measurement": "The level of expressed mRNA in the presence of chemical substance/The level of expressed mRNA in the absence of chemical substance", "setting": "yeast gene YNL074C", "result": 1.8}, {"measurement": "The level of expressed mRNA in the presence of chemical substance/The level of expressed mRNA in the absence of chemical substance", "setting": "yeast gene YNL092W", "result": 2.4}, {"measurement": "The level of expressed mRNA in the presence of chemical substance/The level of expressed mRNA in the absence of chemical substance", "setting": "yeast gene YNL115C", "result": 1.6}, {"measurement": "The level of expressed mRNA in the presence of chemical substance/The level of expressed mRNA in the absence of chemical substance", "setting": "yeast gene YNL156C", "result": 0.9}, {"measurement": "level of expressed mRNA in the presence of chemical substance / level in the absence of chemical substance", "setting": "yeast gene YNL176C", "result": 2.9}, {"measurement": "level of expressed mRNA in the presence of chemical substance / level in the absence of chemical substance", "setting": "yeast gene YNL194C", "result": 2.0}, {"measurement": "level of expressed mRNA in the presence of chemical substance / level in the absence of chemical substance", "setting": "yeast gene YNL200C", "result": 3.6}, {"measurement": "The level of expressed mRNA in the presence of chemical substance/The level of expressed mRNA in the absence of chemical substance", "setting": "yeast gene YNL234W", "result": 0.6}, {"measurement": "level of expressed mRNA in the presence of chemical substance / level in the absence of chemical substance", "setting": "yeast gene YNL253W", "result": 0.6}, {"measurement": "level of expressed mRNA in the presence of chemical substance / level in the absence of chemical substance", "setting": "yeast gene YNL276C", "result": 1.9}, {"measurement": "The level of expressed mRNA in the presence of chemical substance/The level of expressed mRNA in the absence of chemical substance", "setting": "yeast gene YNL281W", "result": 2.0}, {"measurement": "The level of expressed mRNA in the presence of chemical substance/The level of expressed mRNA in the absence of chemical substance", "setting": "yeast gene YNL305C", "result": 2.7}, {"measurement": "level of expressed mRNA in the presence of chemical substance / level in the absence of chemical substance", "setting": "yeast gene YNR051C", "result": 1.1}, {"measurement": "The level of expressed mRNA in the presence of chemical substance/The level of expressed mRNA in the absence of chemical substance", "setting": "yeast gene YNR068C", "result": 2.3}, {"measurement": "level of expressed mRNA in the presence of chemical substance / level in the absence of chemical substance", "setting": "yeast gene YOL026C", "result": 0.7}, {"measurement": "The level of expressed mRNA in the presence of chemical substance/The level of expressed mRNA in the absence of chemical substance", "setting": "yeast gene YOL032W", "result": 2.0}, {"measurement": "The level of expressed mRNA in the presence of chemical substance/The level of expressed mRNA in the absence of chemical substance", "setting": "yeast gene YOL036W", "result": 1.3}, {"measurement": "The level of expressed mRNA in the presence of chemical substance/The level of expressed mRNA in the absence of chemical substance", "setting": "yeast gene YOL047C", "result": 1.1}, {"measurement": "The level of expressed mRNA in the presence of chemical substance/The level of expressed mRNA in the absence of chemical substance", "setting": "yeast gene YOL071W", "result": 1.7}, {"measurement": "The level of expressed mRNA in the presence of chemical substance/The level of expressed mRNA in the absence of chemical substance", "setting": "yeast gene YOL082W", "result": 1.6}, {"measurement": "The level of expressed mRNA in the presence of chemical substance/The level of expressed mRNA in the absence of chemical substance", "setting": "yeast gene YOL083W", "result": 1.2}, {"measurement": "The level of expressed mRNA in the presence of chemical substance/The level of expressed mRNA in the absence of chemical substance", "setting": "yeast gene YOL117W", "result": 0.5}, {"measurement": "The level of expressed mRNA in the presence of chemical substance/The level of expressed mRNA in the absence of chemical substance", "setting": "yeast gene YOL131W", "result": 0.6}, {"measurement": "The level of expressed mRNA in the presence of chemical substance/The level of expressed mRNA in the absence of chemical substance", "setting": "yeast gene YOL150C", "result": 9.9}, {"measurement": "The level of expressed mRNA in the presence of chemical substance/The level of expressed mRNA in the absence of chemical substance", "setting": "yeast gene YOL162W", "result": 1.7}, {"measurement": "The level of expressed mRNA in the presence of chemical substance/The level of expressed mRNA in the absence of chemical substance", "setting": "yeast gene YOR019W", "result": 0.8}, {"measurement": "level of expressed mRNA in the presence of chemical substance / level in the absence of chemical substance", "setting": "yeast gene YOR022C", "result": 1.1}, {"measurement": "level of expressed mRNA in the presence of chemical substance / level in the absence of chemical substance", "setting": "yeast gene YOR087W", "result": 1.8}, {"measurement": "level of expressed mRNA in the presence of chemical substance / level in the absence of chemical substance", "setting": "yeast gene YOR138C", "result": 0.7}, {"measurement": "The level of expressed mRNA in the presence of chemical substance/The level of expressed mRNA in the absence of chemical substance", "setting": "yeast gene YOR197W", "result": 1.1}, {"measurement": "level of expressed mRNA in the presence of chemical substance / level in the absence of chemical substance", "setting": "yeast gene YOR253W", "result": 1.0}, {"measurement": "level of expressed mRNA in the presence of chemical substance / level in the absence of chemical substance", "setting": "yeast gene YOR267C", "result": 1.0}, {"measurement": "level of expressed mRNA in the presence of chemical substance / level in the absence of chemical substance", "setting": "yeast gene YOR325W", "result": 1.5}, {"measurement": "level of expressed mRNA in the presence of chemical substance / level in the absence of chemical substance", "setting": "yeast gene YPL005W", "result": 1.0}, {"measurement": "The level of expressed mRNA in the presence of chemical substance/The level of expressed mRNA in the absence of chemical substance", "setting": "yeast gene YPL087W", "result": 3.0}, {"measurement": "level of expressed mRNA in the presence of chemical substance / level in the absence of chemical substance", "setting": "yeast gene YPL150W", "result": 1.6}, {"measurement": "level of expressed mRNA in the presence of chemical substance / level in the absence of chemical substance", "setting": "yeast gene YPL152W", "result": 1.4}, {"measurement": "level of expressed mRNA in the presence of chemical substance / level in the absence of chemical substance", "setting": "yeast gene YPL168W", "result": 0.5}, {"measurement": "level of expressed mRNA in the presence of chemical substance / level in the absence of chemical substance", "setting": "yeast gene YPL180W", "result": 0.7}, {"measurement": "level of expressed mRNA in the presence of chemical substance / level in the absence of chemical substance", "setting": "yeast gene YPL188W", "result": 2.9}, {"measurement": "The level of expressed mRNA in the presence of chemical substance/The level of expressed mRNA in the absence of chemical substance", "setting": "yeast gene YPL196W", "result": 1.3}, {"measurement": "The level of expressed mRNA in the presence of chemical substance/The level of expressed mRNA in the absence of chemical substance", "setting": "yeast gene YPL206C", "result": 1.4}, {"measurement": "level of expressed mRNA in the presence of chemical substance / level in the absence of chemical substance", "setting": "yeast gene YPL221W", "result": 1.0}, {"measurement": "The level of expressed mRNA in the presence of chemical substance/The level of expressed mRNA in the absence of chemical substance", "setting": "yeast gene YPL222W", "result": 0.8}, {"measurement": "level of expressed mRNA in the presence of chemical substance / level in the absence of chemical substance", "setting": "yeast gene YPL225W", "result": 1.0}, {"measurement": "The level of expressed mRNA in the presence of chemical substance/The level of expressed mRNA in the absence of chemical substance", "setting": "yeast gene YPR023C", "result": 1.2}, {"measurement": "level of expressed mRNA in the presence of chemical substance / level in the absence of chemical substance", "setting": "yeast gene YPR049C", "result": 1.5}, {"measurement": "level of expressed mRNA in the presence of chemical substance / level in the absence of chemical substance", "setting": "yeast gene YPR146C", "result": 1.3}, {"measurement": "level of expressed mRNA in the presence of chemical substance / level in the absence of chemical substance", "setting": "yeast gene YPR148C", "result": 0.8}, {"measurement": "The level of expressed mRNA in the presence of chemical substance/The level of expressed mRNA in the absence of chemical substance", "setting": "yeast gene YPR151C", "result": 1.5}, {"measurement": "level of expressed mRNA in the presence of chemical substance / level in the absence of chemical substance", "setting": "yeast gene YPR172W", "result": 2.2}]}]}
